#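 Five concentrations, 48 hours, 96-well plates. The concentration for 50% growth inhibition is given as GI50.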 Calls of active or inactive are those of the source. No stated cut-off is given here; in the data, active = GI50 up to about 1.1 µM and inactive = higher.
# Key:
# Experiment in all cases: growth of human tumour cells (NCI), 48 h
# HT-29 = system: HT-29
# SN12C = system: SN12C
# LOX IMVI = system: LOX IMVI
# MOLT-4 = system: MOLT-4
# UACC-257 = system: UACC-257
# EKVX = system: EKVX
# OVCAR-8 = system: OVCAR-8
# SK-OV-3 = system: SK-OV-3
# KM12 = system: KM12
# HOP-18 = system: HOP-18
# SNB-75 = system: SNB-75
# SNB-78 = system: SNB-78
# IGROV-1 = system: IGROV-1
# SK-MEL-2 = system: SK-MEL-2
# M14 = system: M14
# SK-MEL-28 = system: SK-MEL-28
# A498 = system: A498
# NCI-H522 = system: NCI-H522
# U-251 = system: U-251
# DLD-1 = system: DLD-1
# ACHN = system: ACHN
# CCRF-CEM = system: CCRF-CEM
# NCI-H23 = system: NCI-H23
# RXF 393 = system: RXF 393
# DMS-273 = system: DMS-273
# TK-10 = system: TK-10
# SNB-19 = system: SNB-19
# HL-60 = system: HL-60
# LXFL 529 = system: LXFL 529
# NCI-H226 = system: NCI-H226
# HCC 2998 = system: HCC 2998
# Malme-3M = system: Malme-3M
# SF-539 = system: SF-539
# KM-20L2 = system: KM-20L2
# HCT-15 = system: HCT-15
# SF-268 = system: SF-268
# NCI-H460 = system: NCI-H460
# UACC-62 = system: UACC-62
# DMS-114 = system: DMS-114
# 786-0 = system: 786-0
# OVCAR-3 = system: OVCAR-3
# K562 = system: K562
# UO-31 = system: UO-31
# COLO 205 = system: COLO 205
# OVCAR-4 = system: OVCAR-4
# HOP-92 = system: HOP-92
# RPMI-8226 = system: RPMI-8226
# SF-295 = system: SF-295
# SR = system: SR
# M19-MEL = system: M19-MEL
# HOP-62 = system: HOP-62
# XF498 = system: XF498
# HCT-116 = system: HCT-116
# SW-620 = system: SW-620
# A549 = system: A549
# SK-MEL-5 = system: SK-MEL-5
# OVCAR-5 = system: OVCAR-5
# CAKI-1 = system: CAKI-1
smiles,measurement,setting,value
CC1(C)OCN(c2ccc(S(N)(=O)=O)cc2)Cn2c1nc1ccccc12,GI50,HT-29,> 100 µM (inactive)
same,GI50,SN12C,> 100 µM (inactive)
same,GI50,LOX IMVI,> 100 µM (inactive)
same,GI50,MOLT-4,> 100 µM (inactive)
same,GI50,UACC-257,> 100 µM (inactive)
same,GI50,EKVX,> 100 µM (inactive)
same,GI50,OVCAR-8,> 100 µM (inactive)
same,GI50,SK-OV-3,> 100 µM (inactive)
same,GI50,KM12,> 100 µM (inactive)
same,GI50,HOP-18,> 100 µM (inactive)
same,GI50,SNB-75,> 100 µM (inactive)
same,GI50,SNB-78,> 100 µM (inactive)
same,GI50,IGROV-1,> 100 µM (inactive)
same,GI50,SK-MEL-2,> 100 µM (inactive)
same,GI50,M14,> 100 µM (inactive)
same,GI50,SK-MEL-28,> 100 µM (inactive)
same,GI50,A498,> 100 µM (inactive)
same,GI50,NCI-H522,> 100 µM (inactive)
same,GI50,U-251,> 100 µM (inactive)
same,GI50,DLD-1,> 100 µM (inactive)
same,GI50,ACHN,> 100 µM (inactive)
same,GI50,CCRF-CEM,> 100 µM (inactive)
same,GI50,NCI-H23,> 100 µM (inactive)
same,GI50,RXF 393,> 100 µM (inactive)
same,GI50,DMS-273,> 100 µM (inactive)
same,GI50,TK-10,> 100 µM (inactive)
same,GI50,SNB-19,> 100 µM (inactive)
same,GI50,HL-60,> 100 µM (inactive)
same,GI50,LXFL 529,> 100 µM (inactive)
same,GI50,NCI-H226,> 100 µM (inactive)
same,GI50,HCC 2998,> 100 µM (inactive)
same,GI50,Malme-3M,> 100 µM (inactive)
same,GI50,SF-539,> 100 µM (inactive)
same,GI50,KM-20L2,> 100 µM (inactive)
same,GI50,HCT-15,> 100 µM
same,GI50,SF-268,> 100 µM (inactive)
same,GI50,NCI-H460,> 100 µM (inactive)
same,GI50,UACC-62,> 100 µM (inactive)
same,GI50,DMS-114,> 100 µM (inactive)
same,GI50,786-0,> 100 µM (inactive)
same,GI50,OVCAR-3,> 100 µM (inactive)
same,GI50,K562,> 100 µM (inactive)
same,GI50,UO-31,> 100 µM (inactive)
same,GI50,COLO 205,> 100 µM (inactive)
same,GI50,OVCAR-4,> 100 µM (inactive)
same,GI50,HOP-92,> 100 µM (inactive)
same,GI50,RPMI-8226,> 100 µM (inactive)
same,GI50,SF-295,> 100 µM (inactive)
same,GI50,SR,> 100 µM (inactive)
same,GI50,M19-MEL,> 100 µM (inactive)
same,GI50,HOP-62,> 100 µM (inactive)
same,GI50,XF498,> 100 µM (inactive)
same,GI50,HCT-116,> 100 µM (inactive)
same,GI50,SW-620,> 100 µM (inactive)
same,GI50,A549,> 100 µM (inactive)
O=C1OC(CC(=O)c2ccc(F)cc2)C(Cl)=C1Cl (stereo not drawn),GI50,SK-MEL-5,25.5 µM (inactive)
same,GI50,HT-29,18.2 µM (inactive)
same,GI50,SN12C,19.4 µM (inactive)
same,GI50,LOX IMVI,16.8 µM (inactive)
same,GI50,MOLT-4,29 µM (inactive)
same,GI50,UACC-257,16.9 µM (inactive)
same,GI50,EKVX,48.4 µM (inactive)
same,GI50,OVCAR-8,19.4 µM (inactive)
same,GI50,SK-OV-3,49 µM (inactive)
same,GI50,KM12,16.7 µM (inactive)
same,GI50,HOP-18,17.9 µM (inactive)
same,GI50,SNB-78,37.9 µM (inactive)
same,GI50,IGROV-1,27.2 µM (inactive)
same,GI50,SK-MEL-2,22.4 µM (inactive)
same,GI50,M14,22.9 µM (inactive)
same,GI50,SK-MEL-28,43.3 µM (inactive)
same,GI50,NCI-H522,18.9 µM (inactive)
same,GI50,OVCAR-5,24.5 µM (inactive)
same,GI50,U-251,20 µM (inactive)
same,GI50,DLD-1,21.6 µM (inactive)
same,GI50,ACHN,34.4 µM (inactive)
same,GI50,CCRF-CEM,29.4 µM (inactive)
same,GI50,NCI-H23,29.6 µM (inactive)
same,GI50,RXF 393,21.6 µM (inactive)
same,GI50,TK-10,40.2 µM (inactive)
same,GI50,SNB-19,22.3 µM (inactive)
same,GI50,HL-60,24.7 µM (inactive)
same,GI50,LXFL 529,18 µM (inactive)
same,GI50,NCI-H226,18.5 µM (inactive)
same,GI50,HCC 2998,16.5 µM (inactive)
same,GI50,Malme-3M,17.2 µM (inactive)
same,GI50,SF-539,19 µM (inactive)
same,GI50,HCT-15,18.4 µM
same,GI50,SF-268,> 10 µM (inactive)
same,GI50,NCI-H460,21.5 µM (inactive)
same,GI50,UACC-62,17 µM (inactive)
same,GI50,DMS-114,40.3 µM (inactive)
same,GI50,786-0,18.5 µM (inactive)
same,GI50,OVCAR-3,22.1 µM (inactive)
same,GI50,CAKI-1,39.4 µM (inactive)
same,GI50,K562,33 µM (inactive)
same,GI50,UO-31,22.3 µM (inactive)
same,GI50,OVCAR-4,19.6 µM (inactive)
same,GI50,HOP-92,20 µM (inactive)
same,GI50,RPMI-8226,34.2 µM (inactive)
same,GI50,SF-295,> 100 µM (inactive)
same,GI50,SR,27.2 µM (inactive)
same,GI50,M19-MEL,73.3 µM (inactive)
same,GI50,HOP-62,32.1 µM (inactive)
same,GI50,XF498,26.7 µM (inactive)
same,GI50,HCT-116,23.3 µM (inactive)
same,GI50,SW-620,23.3 µM (inactive)
same,GI50,A549,40 µM (inactive)
COc1cccc(NC(=O)C(=O)C2C=CCS2(=O)=O)c1 (stereo not drawn),GI50,SK-MEL-5,> 100 µM (inactive)
same,GI50,HT-29,> 100 µM (inactive)
same,GI50,SN12C,> 100 µM (inactive)
same,GI50,LOX IMVI,> 100 µM (inactive)
same,GI50,MOLT-4,> 100 µM (inactive)
same,GI50,UACC-257,> 100 µM (inactive)
same,GI50,EKVX,> 100 µM (inactive)
same,GI50,OVCAR-8,53.8 µM (inactive)
same,GI50,SK-OV-3,> 100 µM (inactive)
same,GI50,KM12,> 100 µM (inactive)
same,GI50,HOP-18,> 100 µM (inactive)
same,GI50,SNB-75,56 µM (inactive)
same,GI50,IGROV-1,> 100 µM (inactive)
same,GI50,SK-MEL-2,> 100 µM (inactive)
same,GI50,M14,> 100 µM (inactive)
same,GI50,SK-MEL-28,> 100 µM (inactive)
same,GI50,A498,> 100 µM (inactive)
same,GI50,NCI-H522,> 100 µM (inactive)
same,GI50,OVCAR-5,> 100 µM (inactive)
same,GI50,U-251,> 100 µM (inactive)
same,GI50,DLD-1,> 100 µM (inactive)
same,GI50,ACHN,> 100 µM (inactive)
same,GI50,CCRF-CEM,> 100 µM (inactive)
same,GI50,NCI-H23,> 100 µM (inactive)
same,GI50,RXF 393,> 100 µM (inactive)
same,GI50,TK-10,> 100 µM (inactive)
same,GI50,SNB-19,> 100 µM (inactive)
same,GI50,HL-60,> 100 µM (inactive)
same,GI50,LXFL 529,> 100 µM (inactive)
same,GI50,NCI-H226,> 100 µM (inactive)
same,GI50,HCC 2998,> 100 µM (inactive)
same,GI50,Malme-3M,> 100 µM (inactive)
same,GI50,SF-539,> 100 µM (inactive)
same,GI50,KM-20L2,> 100 µM (inactive)
same,GI50,HCT-15,> 100 µM
same,GI50,SF-268,> 100 µM (inactive)
same,GI50,NCI-H460,> 100 µM (inactive)
same,GI50,UACC-62,> 100 µM (inactive)
same,GI50,DMS-114,> 100 µM (inactive)
same,GI50,786-0,> 100 µM (inactive)
same,GI50,OVCAR-3,> 100 µM (inactive)
same,GI50,CAKI-1,> 100 µM (inactive)
same,GI50,K562,> 100 µM (inactive)
same,GI50,UO-31,> 100 µM (inactive)
same,GI50,COLO 205,> 100 µM (inactive)
same,GI50,OVCAR-4,> 100 µM (inactive)
same,GI50,RPMI-8226,> 100 µM (inactive)
same,GI50,SF-295,> 100 µM (inactive)
same,GI50,SR,> 100 µM (inactive)
same,GI50,M19-MEL,> 100 µM (inactive)
same,GI50,HOP-62,> 100 µM (inactive)
same,GI50,XF498,> 100 µM (inactive)
same,GI50,HCT-116,> 100 µM (inactive)
same,GI50,SW-620,> 100 µM (inactive)
same,GI50,A549,> 100 µM (inactive)

# — ChEMBL document CHEMBL1201862, “PubChem BioAssay data set” (2004)
